{
  "source": "ChEMBL document CHEMBL5375952",
  "about": "“Discovery of Novel 8-Hydroxyquinoline Derivatives with Potent In Vitro and In Vivo Antifungal Activity” (J Med Chem, 2023)",
  "format_in_all_cases": "functional",
  "key": {"Candida albicans [1]": {"test_system": "Candida albicans", "experiment": "Antifungal activity against Candida albicans 22 assessed as fungal growth inhibition incubated for 48 hrs by broth microdilution method"}, "Candida albicans [2]": {"test_system": "Candida albicans", "experiment": "Antifungal activity against Candida albicans 21 assessed as fungal growth inhibition incubated for 48 hrs by broth microdilution method"}, "Candida albicans [3]": {"test_system": "Candida albicans", "experiment": "Antifungal activity against Candida albicans SC5314 assessed as fungal growth inhibition incubated for 48 hrs by broth microdilution method"}},
  "data": [
    {"smiles": "Cc1ccc(C(NC(=O)Cc2ccccc2)c2ccc3cccnc3c2O)cc1", "note": "(centres undefined)", "values": [
      {"measurement": "MIC", "setting": "Candida albicans [1]", "value": 1, "unit": "µg/mL"},
      {"measurement": "MIC", "setting": "Candida albicans [2]", "value": 0.25, "unit": "µg/mL"},
      {"measurement": "MIC", "setting": "Candida albicans [3]", "value": 1, "unit": "µg/mL"}
    ]},
    {"smiles": "COc1ccc(C(NC(C)=O)c2ccc3cccnc3c2O)c(OC)c1", "note": "(centres undefined)", "values": [
      {"measurement": "MIC", "setting": "Candida albicans [1]", "value": 4, "unit": "µg/mL"},
      {"measurement": "MIC", "setting": "Candida albicans [2]", "value": 4, "unit": "µg/mL"},
      {"measurement": "MIC", "setting": "Candida albicans [3]", "value": 4, "unit": "µg/mL"}
    ]},
    {"smiles": "CC(C)C(=O)NC(c1ccccc1Cl)c1ccc2cccnc2c1O", "note": "(centres undefined)", "values": [
      {"measurement": "MIC", "setting": "Candida albicans [1]", "value": 2, "unit": "µg/mL"},
      {"measurement": "MIC", "setting": "Candida albicans [2]", "value": 2, "unit": "µg/mL"},
      {"measurement": "MIC", "setting": "Candida albicans [3]", "value": 2, "unit": "µg/mL"}
    ]},
    {"smiles": "CCCC(=O)NC(c1cccc([N+](=O)[O-])c1)c1ccc2cccnc2c1O", "note": "(centres undefined)", "values": [
      {"measurement": "MIC", "setting": "Candida albicans [1]", "value": 1, "unit": "µg/mL"},
      {"measurement": "MIC", "setting": "Candida albicans [2]", "value": 1, "unit": "µg/mL"},
      {"measurement": "MIC", "setting": "Candida albicans [3]", "value": 1, "unit": "µg/mL"}
    ]},
    {"smiles": "CCC(=O)NC(c1cccc([N+](=O)[O-])c1)c1ccc2cccnc2c1O", "note": "(centres undefined)", "values": [
      {"measurement": "MIC", "setting": "Candida albicans [1]", "value": 4, "unit": "µg/mL"},
      {"measurement": "MIC", "setting": "Candida albicans [2]", "value": 4, "unit": "µg/mL"},
      {"measurement": "MIC", "setting": "Candida albicans [3]", "value": 4, "unit": "µg/mL"}
    ]},
    {"smiles": "CC(C)C(=O)NC(c1ccc(OC(F)F)cc1)c1ccc2cccnc2c1O", "note": "(centres undefined)", "values": [
      {"measurement": "MIC", "setting": "Candida albicans [1]", "value": 0.5, "unit": "µg/mL"},
      {"measurement": "MIC", "setting": "Candida albicans [2]", "value": 0.5, "unit": "µg/mL"},
      {"measurement": "MIC", "setting": "Candida albicans [3]", "value": 1, "unit": "µg/mL"}
    ]},
    {"smiles": "CC(=O)NC(c1ccc2ccccc2c1)c1ccc2cccnc2c1O", "note": "(centres undefined)", "values": [
      {"measurement": "MIC", "setting": "Candida albicans [1]", "value": 0.125, "unit": "µg/mL"},
      {"measurement": "MIC", "setting": "Candida albicans [2]", "value": 0.5, "unit": "µg/mL"},
      {"measurement": "MIC", "setting": "Candida albicans [3]", "value": 0.25, "unit": "µg/mL"}
    ]},
    {"smiles": "COc1ccc(C(NC(=O)C(C)C)c2ccc3cccnc3c2O)cc1", "note": "(centres undefined)", "values": [
      {"measurement": "MIC", "setting": "Candida albicans [1]", "value": 1, "unit": "µg/mL"},
      {"measurement": "MIC", "setting": "Candida albicans [2]", "value": 0.5, "unit": "µg/mL"},
      {"measurement": "MIC", "setting": "Candida albicans [3]", "value": 2, "unit": "µg/mL"}
    ]},
    {"smiles": "O=C(Cc1ccccc1)NC(c1ccc(F)c(Cl)c1)c1ccc2cccnc2c1O", "note": "(centres undefined)", "values": [
      {"measurement": "MIC", "setting": "Candida albicans [1]", "value": 1, "unit": "µg/mL"},
      {"measurement": "MIC", "setting": "Candida albicans [2]", "value": 0.5, "unit": "µg/mL"},
      {"measurement": "MIC", "setting": "Candida albicans [3]", "value": 0.5, "unit": "µg/mL"}
    ]},
    {"smiles": "O=C(Cc1ccccc1)NC(c1ccc(Br)cc1)c1ccc2cccnc2c1O", "note": "(centres undefined)", "values": [
      {"measurement": "MIC", "setting": "Candida albicans [1]", "value": 1, "unit": "µg/mL"},
      {"measurement": "MIC", "setting": "Candida albicans [2]", "value": 1, "unit": "µg/mL"},
      {"measurement": "MIC", "setting": "Candida albicans [3]", "value": 2, "unit": "µg/mL"}
    ]},
    {"smiles": "O=C(Cc1ccccc1)NC(c1ccc(F)cc1)c1ccc2cccnc2c1O", "note": "(centres undefined)", "values": [
      {"measurement": "MIC", "setting": "Candida albicans [1]", "value": 1, "unit": "µg/mL"},
      {"measurement": "MIC", "setting": "Candida albicans [2]", "value": 1, "unit": "µg/mL"},
      {"measurement": "MIC", "setting": "Candida albicans [3]", "value": 0.5, "unit": "µg/mL"}
    ]},
    {"smiles": "CC(C)C(=O)NC(c1cccc([N+](=O)[O-])c1)c1ccc2cccnc2c1O", "note": "(centres undefined)", "values": [
      {"measurement": "MIC", "setting": "Candida albicans [1]", "value": 0.5, "unit": "µg/mL"},
      {"measurement": "MIC", "setting": "Candida albicans [2]", "value": 0.25, "unit": "µg/mL"},
      {"measurement": "MIC", "setting": "Candida albicans [3]", "value": 0.25, "unit": "µg/mL"}
    ]},
    {"smiles": "COc1ccccc1C(NC(=O)C(C)C)c1cc(Cl)c2cccnc2c1O", "note": "(centres undefined)", "values": [
      {"measurement": "MIC", "setting": "Candida albicans [1]", "value": "> 64", "unit": "µg/mL"},
      {"measurement": "MIC", "setting": "Candida albicans [2]", "value": 64, "unit": "µg/mL"},
      {"measurement": "MIC", "setting": "Candida albicans [3]", "value": "> 64", "unit": "µg/mL"}
    ]},
    {"smiles": "CC(=O)NC(c1ccccc1Cl)c1ccc2cccnc2c1O", "note": "(centres undefined)", "values": [
      {"measurement": "MIC", "setting": "Candida albicans [1]", "value": 8, "unit": "µg/mL"},
      {"measurement": "MIC", "setting": "Candida albicans [2]", "value": 8, "unit": "µg/mL"},
      {"measurement": "MIC", "setting": "Candida albicans [3]", "value": 8, "unit": "µg/mL"}
    ]},
    {"smiles": "CC(C)C(=O)NC(c1ccc(Cl)c(Cl)c1)c1ccc2cccnc2c1O", "note": "(centres undefined)", "values": [
      {"measurement": "MIC", "setting": "Candida albicans [1]", "value": 1, "unit": "µg/mL"},
      {"measurement": "MIC", "setting": "Candida albicans [2]", "value": 0.25, "unit": "µg/mL"},
      {"measurement": "MIC", "setting": "Candida albicans [3]", "value": 1, "unit": "µg/mL"}
    ]},
    {"smiles": "Cc1ccc(C(NC(=O)C(C)C)c2ccc3cccnc3c2O)cc1", "note": "(centres undefined)", "values": [
      {"measurement": "MIC", "setting": "Candida albicans [1]", "value": 1, "unit": "µg/mL"},
      {"measurement": "MIC", "setting": "Candida albicans [2]", "value": 1, "unit": "µg/mL"},
      {"measurement": "MIC", "setting": "Candida albicans [3]", "value": 2, "unit": "µg/mL"}
    ]},
    {"smiles": "O=C(Cc1ccccc1)NC(c1ccc(Cl)cc1)c1ccc2cccnc2c1O", "note": "(centres undefined)", "values": [
      {"measurement": "MIC", "setting": "Candida albicans [1]", "value": 1, "unit": "µg/mL"},
      {"measurement": "MIC", "setting": "Candida albicans [2]", "value": 0.25, "unit": "µg/mL"},
      {"measurement": "MIC", "setting": "Candida albicans [3]", "value": 2, "unit": "µg/mL"}
    ]},
    {"smiles": "CC(C)C(=O)NC(c1ccc(OC(F)(F)F)cc1)c1ccc2cccnc2c1O", "note": "(centres undefined)", "values": [
      {"measurement": "MIC", "setting": "Candida albicans [1]", "value": 1, "unit": "µg/mL"},
      {"measurement": "MIC", "setting": "Candida albicans [2]", "value": 1, "unit": "µg/mL"},
      {"measurement": "MIC", "setting": "Candida albicans [3]", "value": 0.5, "unit": "µg/mL"}
    ]},
    {"smiles": "CC(C)C(=O)NC(c1ccc(Br)cc1)c1ccc2cccnc2c1O", "note": "(centres undefined)", "values": [
      {"measurement": "MIC", "setting": "Candida albicans [1]", "value": 1, "unit": "µg/mL"},
      {"measurement": "MIC", "setting": "Candida albicans [2]", "value": 0.5, "unit": "µg/mL"},
      {"measurement": "MIC", "setting": "Candida albicans [3]", "value": 2, "unit": "µg/mL"}
    ]},
    {"smiles": "O=C(Cc1ccccc1)NC(c1ccc(Cl)c(Cl)c1)c1ccc2cccnc2c1O", "note": "(centres undefined)", "values": [
      {"measurement": "MIC", "setting": "Candida albicans [1]", "value": 1, "unit": "µg/mL"},
      {"measurement": "MIC", "setting": "Candida albicans [2]", "value": 1, "unit": "µg/mL"},
      {"measurement": "MIC", "setting": "Candida albicans [3]", "value": 0.5, "unit": "µg/mL"}
    ]},
    {"smiles": "COc1ccc(C(NC(=O)Cc2ccccc2)c2ccc3cccnc3c2O)cc1", "note": "(centres undefined)", "values": [
      {"measurement": "MIC", "setting": "Candida albicans [1]", "value": 1, "unit": "µg/mL"},
      {"measurement": "MIC", "setting": "Candida albicans [2]", "value": 0.5, "unit": "µg/mL"},
      {"measurement": "MIC", "setting": "Candida albicans [3]", "value": 2, "unit": "µg/mL"}
    ]},
    {"smiles": "CN(C)c1ccc(C(NC(=O)Cc2ccccc2)c2ccc3cccnc3c2O)cc1", "note": "(centres undefined)", "values": [
      {"measurement": "MIC", "setting": "Candida albicans [1]", "value": 2, "unit": "µg/mL"},
      {"measurement": "MIC", "setting": "Candida albicans [2]", "value": 0.5, "unit": "µg/mL"},
      {"measurement": "MIC", "setting": "Candida albicans [3]", "value": 0.25, "unit": "µg/mL"}
    ]},
    {"smiles": "CCC(=O)NC(c1ccc(C)cc1)c1ccc2cccnc2c1O", "note": "(centres undefined)", "values": [
      {"measurement": "MIC", "setting": "Candida albicans [1]", "value": 0.5, "unit": "µg/mL"},
      {"measurement": "MIC", "setting": "Candida albicans [2]", "value": 0.5, "unit": "µg/mL"},
      {"measurement": "MIC", "setting": "Candida albicans [3]", "value": 0.5, "unit": "µg/mL"}
    ]}
  ]
}
